{"source": "patent US20200046703A1", "about": "“COMPOSITIONS AND METHODS FOR TREATMENT OF THE SIDE-EFFECTS ASSOCIATED WITH ADMINISTRATION OF THERAPEUTIC AGENTS” (ASYMMETRIC THERAPEUTICS, LLC, priority 2018, published 2020)", "type_in_all_cases": "cell-based, human", "key": {"[1]": {"assay": "Proliferating HGEP cell viability with/without 5-FU", "conditions": "human, proliferating HGEP cells; 10 μM of 5-FU; read-out: viability compared to a control system without 5-FU", "protocol": "(§1) In one set of experiments, the results of which are shown in Table 1, proliferating HGEP cells, commonly used to assess oral mucosal toxicity, were exposed to the clinically-relevant dose of 10 μM of 5-FU and different concentrations of oxypurinol, either alone or with different concentrations of adenine or uracil, using standard tissue culture methods and incubated at 37° C. Oxypurinol concentrations of 0.03 mM, 0.1 mM, and 0.3 mM were tested. Adenine and uracil concentrations of 0.1 mM and 0.3 mM were tested. The relative viability of the cells was determined after 120 hours."}, "proliferating HGEP cells": {"test_system": "proliferating HGEP cells", "assay": "Proliferating HGEP cell viability with/without 5-FU", "conditions": "5-FU 10 μM alone; relative to control; 120 hours", "protocol": "as §1"}, "[2]": {"assay": "Confluent HPEK cell viability with/without 5-FU", "conditions": "human, confluent HPEK cells; 10 μM of 5-FU; read-out: viability compared to a control system without 5-FU", "protocol": "(§2) Oxypurinol and allopurinol concentrations of 0.3 mM, 1.0 mM, and 3.0 mM, which are ten times higher than those used in the first set of experiments, were tested. An adenine concentration of 0.3 mM, which was the higher concentration used in the first set of experiments, was tested. The relative viability of the cells was determined after 120 hours."}, "confluent HPEK cells": {"test_system": "confluent HPEK cells", "assay": "Confluent HPEK cell viability with/without 5-FU", "conditions": "5-FU 10 μM alone; relative to control; 120 hours", "protocol": "as §2"}, "[3]": {"assay": "Confluent NHEK cell viability with/without 5-FU", "conditions": "human, confluent NHEK cells; 10 μM of 5-FU; read-out: viability compared to a control system without 5-FU", "protocol": "(§3) In yet another set of experiments, the results of which are shown in Table 4, confluent NHEK cells were exposed to the clinically-relevant dose of 10 μM of 5-FU and different concentrations of sodium hydroxide, oxypurinol, or allopurinol using standard tissue culture methods and incubated at 37° C. Sodium hydroxide concentrations of 1 mM, 2 mM, 3 mM, and 4 mM were tested. Oxypurinol and allopurinol concentrations of 0.1 mM, 0.3 mM, 1.0 mM, and 3.0 mM were tested, both in the presence and in the absence of 10 μM of 5-FU. The relative viability of the cells was determined after 120 hours. The sodium hydroxide trials were only performed to serve as a control."}, "confluent NHEK cells": {"test_system": "confluent NHEK cells", "assay": "Confluent NHEK cell viability with/without 5-FU", "conditions": "5-FU 10 μM alone; relative to control; 120 hours", "protocol": "as §3"}, "[4]": {"assay": "Proliferating HPEK cell viability with/without 5-FU", "conditions": "human, proliferating HPEK cells; 10 μM of 5-FU; read-out: viability compared to a control system without 5-FU", "protocol": "as §1, with “In another” for “In one”, “Table 2,” for “Table 1,”, “proliferating HPEK” for “proliferating HGEP”, “assess skin tissue” for “assess oral mucosal”"}, "proliferating HPEK cells": {"test_system": "proliferating HPEK cells", "assay": "Proliferating HPEK cell viability with/without 5-FU", "conditions": "5-FU 10 μM alone; relative to control; 120 hours", "protocol": "as §1, with “In another” for “In one”, “Table 2,” for “Table 1,”, “proliferating HPEK” for “proliferating HGEP”, “assess skin tissue” for “assess oral mucosal”"}}, "note": "Several values for one entry are separate records, joined by “and”; a condition that tells them apart may be missing. Equal values may be shown once.", "data": [{"compound": "O=c1[nH]cc(F)c(=O)[nH]1", "note": "[5-FU, 5-fluorouracil, reference compound]", "values": [{"measurement": "viability at 120 h, 10 µM", "setting": "[1]", "value": 62.2, "unit": "%"}, {"measurement": "relative cell viability (AVG)", "setting": "proliferating HGEP cells", "value": 0.6217}, {"measurement": "viability at 120 h, 10 µM", "setting": "[2]", "value": 65.1, "unit": "%"}, {"measurement": "relative cell viability (AVG)", "setting": "confluent HPEK cells", "value": "0.64 and 0.6421"}, {"measurement": "viability at 120 h, 10 µM", "setting": "[3]", "value": 41.6, "unit": "%"}, {"measurement": "relative cell viability (AVG)", "setting": "confluent NHEK cells", "value": "0.42 and 0.4165"}, {"measurement": "viability at 120 h, 10 µM", "setting": "[4]", "value": 65.1, "unit": "%"}, {"measurement": "relative cell viability (AVG)", "setting": "proliferating HPEK cells", "value": 0.6507}]}]}
